Laboratory results as given in patent US10653173B2, “Method for masking unpleasant taste” (Analyticon Discovery GmbH, priority 2015, dated 2020).

Key:
[1] = Sensory panel: taste of combination with saccharin; assay type: in vivo, human; details: 10 μM with 80 ppm saccharin, pH neutral
Description: The sensory evaluation of the samples was performed by a team of five experienced assessors. The results may be taken from the following Table 3: [table]

[2] = Sensory panel: taste modulation of green tea; assay type: in vivo, human; details: vs 0.5% ethanol in tea
Description: The sensory evaluation of the samples was performed by a team of five experienced assessors. Details may be taken from the following Table 6: [table]

[3] = Sensory panel: taste modulation of a potassium chloride solution; assay type: in vivo, human; details: 50 μM, pH neutral, 1,500 mg KCl in 100 ml water
Description: The sensory evaluation of the samples was performed by a team of five experienced assessors. Details may be taken from the following Table 9: [table]

[4] = Sensory panel: taste modulation of grapefruit juice; assay type: in vivo, human
Description: The sensory evaluation of the samples was performed by a team of five experienced assessors. Details may be taken from the following Table 7: [table]

[5] = Sensory panel: taste of combination with acesulfame-K; assay type: in vivo, human; details: 25 μM with 150 ppm acesulfame-K, pH neutral
Description: The sensory evaluation of the samples was performed by a team of five experienced assessors. The results may be taken from the following Table 4: [table]

[6] = test system: human bitter receptor cells; assay: In-vitro assay: intracellular calcium mobilisation (Fluo-4 AM) in human bitter receptor cell line stimulated with saccharin; assay type: cell-based; details: human taste cells stimulated with 1 mM saccharin, fluorometric detection, 0.1-25 μM substance; read-out: IC50 (average inhibitory concentration of the antagonist)
Description: Human bitter receptor cells were established, and the activation of these cells was quantified in order to detect, by means of a cell-based test system, natural substances which reduce the bitterness of bitter principles. The change of the intracellular […] level was measured for quantitation of the activation of bitter receptor cells. In order to detect substances with inhibitory activity, a high-throughput cell-based in-vitro measurement system was established. […] The modulation of the intracellular […] level of the bitter receptor cells was quantitated by means of the […] fluorescence dye Fluo-4 AM in a microplate reader. […] The quantity of mobilised calcium may be quantitated by means of fluorescence, which increases in proportion with the concentration of calcium. […] 24 hours after seeding, the cells were dyed with 4 μM of the calcium-sensitive fluorescence dye Fluo-4 AM in HBSS (Hank's Balanced Salt Solution) buffer, and the mobilisation of calcium in living cells was measured in the microplate reader (FlexStation® […], Molecular Devices). […] The mobilisation of calcium was measured in the microplate reader at 37° C. The mobilisation of calcium was quantitated as the change of fluorescence (dF) after the addition of the substance, taking into account the basal fluorescence (F0) as dF/F0. […]

[7] = cited from earlier work

## CC(C)c1ccc2c(c1)CC[C@H]1[C@](C)(C(=O)O)CCC[C@]21C [dehydroabietic acid]
[1]
  Evaluation (taste with saccharin): Slightly bitter aftertaste
[2]; 25 μM in Green tea
  Evaluation (taste of green tea): Slightly bitter taste that quickly fades
[2]; 50 μM in Green tea
  Evaluation (taste of green tea): As in 25 μM, but less astringent
[3]
  Evaluation (taste of potassium chloride solution): Less bitter than the comparison sample
[4]
  Bitter taste of freshly squeezed grapefruit juice: significant reduction of the bitter taste without negatively influencing the fruit aroma and the refreshing tartness
[5]
  Evaluation (taste with acesulfame-K): No bitter taste present any more
[6]
  IC50: 1700 nM

## C=C1C[C@@]23CC[C@H]4[C@@](C)(CCC[C@@]4(C)C(=O)O[C@@H]4O[C@H](CO)[C@@H](O)[C@H](O)[C@H]4O)[C@@H]2CC[C@]1(O[C@@H]1O[C@H](CO)[C@@H](O)[C@H](O)[C@H]1O[C@@H]1O[C@H](CO)[C@@H](O)[C@H](O)[C@H]1O)C3 [stevioside]
[7]
  Daily uptake considered harmless: up to 4 mg per kilogramme of bodyweigh
